Paper PMC10024865 (Journal of medicinal chemistry, 2022)
Values belong to the compound of their own block, whether it stands above or below them.

Experiments:
[1] = test system: PNC prevalence in PC3M cells (GFP-PTB); experiment: High-content assay for PNC reduction; assay type: cell-based
[2] = test system: PC3M cells; experiment: BellBrook Labs tumor cell migration; assay type: cell-based; conditions: 3D collagen
[3] = test system: PC3M cells; experiment: Secondary cytotoxicity/viability assays; assay type: cell-based; conditions: ATP, caspase 3/7, PicoGreen
[4] = test system: nucleolar architecture in PC3M cells; experiment: Immunofluorescence of nucleolar markers RP-194 and NOPP140; assay type: cell-based; conditions: 1 μM, 1 hour
[5] = test system: nucleolar volume in PC3M cells; experiment: Nucleolar disassembly assay; assay type: cell-based; conditions: 24 hr, concentration-response
[6] = mouse, in vivo, ip, 5 mg/kg
[7] = in vivo; conditions: ip
[8] = Parallel artificial membrane permeability assay; assay type: in vitro ADME; conditions: pH 7.4

Compound: CCO/C=N/c1c(C#N)c(-c2ccccc2)c(-c2ccccc2)n1Cc1ccccc1 [Compound 3a, Ethyl (E)-N-(1-benzyl-3-cyano-4,5-diphenyl-1H-pyrrol-2-yl)formimidate]
PNC reduction activity (in words) [1]: inactive

Compound: O=C(Nc1cccnc1)c1cccs1 [CID 790407]
Activity in the invasion assay [2]: active
Activity in all other secondary cytotoxicity/viability assays [3]: inactive

Compound: OCCCNc1ncnc2c1c(-c1ccccc1)c(-c1ccccc1)n2Cc1ccccc1 [Compound 13a, 3-((7-Benzyl-5,6-diphenyl-7H-pyrrolo[2,3-d]pyrimidin-4-yl)amino)propan-1-ol]
PNC reduction activity (in words) [1]: uniformly inactive

Compound: N#Cc1c(-c2ccccc2)c(-c2ccccc2)n(Cc2ccccc2)c1N [Compound 2a]
PNC reduction activity (in words) [1]: inactive

Compound: N=c1c2c(-c3ccccc3)cn(Cc3ccccc3)c2ncn1C1CCOCC1 [Compound 11b, 7-Benzyl-5-phenyl-3-(tetrahydro-2H-pyran-4-yl)-3,7-dihydro-4H-pyrrolo[2,3-d]pyrimidin-4-imine]
distribution of RP-194 and NOPP140 in the nucleolus [4]: diffuse distribution
effect on nucleolar volume [5]: did not influence nucleolar integrity and morphology

Compound: N#Cc1c(-c2ccccc2)c(-c2ccccc2)n(Cc2ccccc2)c1/N=C/N[C@H]1CC[C@H](O)CC1 [Compound 4f, (E)-N'-(1-benzyl-3-cyano-4,5-diphenyl-1H-pyrrol-2-yl)-N-((trans)-4-hydroxycyclohexyl)formimidamide]
PNC reduction activity (in words) [1]: inactive

C48h (μM) [6]: BLQ^b
half-life ([7]; female, BALB/c, mouse, 5 mg/kg): 4.64 h
half-life ([7]; female, BALB/c, mouse, 25 mg/kg): 5.52 h
concentration at 48 h ([7]; female, BALB/c, mouse, 25 mg/kg, C48h (μM)): 0.011 µM
half-life ([7]; male, C57BL/6, mouse, 50 mg/kg): 16.4 h
Compound: N=c1c2c(-c3ccccc3)c(-c3ccccc3)n(Cc3ccccc3)c2ncn1[C@H]1CC[C@H](O)CC1 [Compound 5f, trans-4-(7-Benzyl-4-imino-5,6-diphenyl-4,7-dihydro-3H-pyrrolo[2,3-d]pyrimidin-3-yl)cyclohexan-1-ol]
effect on nucleolar volume [5]: able to reduce nucleolar volume

Compound: O[C@H]1CC[C@H](Nc2ncnc3c2c(-c2ccccc2)c(-c2ccccc2)n3Cc2ccccc2)CC1 [Compound 13b, trans-4-((7-Benzyl-5,6-diphenyl-7H-pyrrolo[2,3-d]pyrimidin-4-yl)amino)cyclohexan-1-ol]
PNC reduction activity (in words) [1]: uniformly inactive

PAMPA permeability (in words) [8]: negligible
Compound: Cc1c(C)n(Cc2ccccc2)c2ncn([C@H]3CC[C@H](O)CC3)c(=N)c12 [Compound 5nnn, (trans)-4-(7-Benzyl-4-imino-5,6-dimethyl-4,7-dihydro-3H-pyrrolo[2,3-d]pyrimidin-3-yl)cyclohexan-1-ol]
